Test results from paper PMC4211326, “H-CRRETAWAC-OH, a Lead Structure for the Development of Radiotracer Targeting Integrin α 5 β 1?” (BioMed Research International, 2014).
Several values for one entry are separate records, joined by “and”; a condition that tells them apart may be missing. Identical values can stand only once. Like-named read-outs stand apart in the source and are kept apart here. Where a SMILES comes first, the peptide text is derived from it. Bridges are numbered along the chain shown (N, C = ends). The star is where a group is joined. Propanoyl(2-F) = CC(F)C(=O)*

What was measured:
integrin α5β1 = molecular target: T1, integrin α5β1 (Homo sapiens, UniProt P05556+P08648); test: Isolated receptor binding assay, immobilised integrin, [125I]echistatin displacement; conditions: for Ki: immobilized integrin; for Suppression of the binding of [125I]echistatin to immobilised integrin α5β1: result in words
T1 construct: purchased Chemicon, Millipore
Method: (§1) The receptor binding assay was performed following the procedure described previously. In brief, commercially available purifiedα v β 3,α 5 β 1, orα IIb β 3 (Triton X-100 formulation, Chemicon, Millipore) was diluted in coating buffer (25 mM Tris-HCl, 150 mM NaCl, 1 mM CaCl2, 0.5 mM MgCl2, 1 mM MnCl2, pH 7.4), and an aliquot of 100 μL/well, corresponding to 25 ng/wellα v β 3, 100 ng/wellα 5 β 1, or 50 ng/wellα IIb β 3, was added to a 96-well microtiter plate (Maxisorb, Nunc, Wiesbaden, Germany) and incubated at 4°C overnight. The cells were incubated for two hours with blocking buffer (200 μL, coating buffer containing 1% (w/v) bovine serum albumin (BSA)) at room temperature. After washing twice with binding buffer (coating buffer with 0.1% (w/v) BSA) the cells were incubated in the presence of the competing ligand (90 μL, 0.5 pM to 500 nM echistatin; 0.05 nM to 50 μM peptide in binding buffer) with [^125I]echistatin (0.37 kBq/well, 10 μL, 0.05 nM; PerkinElmer, Germany) for 3 h. Afterwards, the cells were washed three times with binding buffer, and bound [^125I]echistatin was solubilised with warm NaOH (2 M). The radioactivity in the resulting samples was measured by a γ-counter. Each data point represents the mean from three cells. All measurements were repeated at least once. K i values were calculated using the software program GraphPad PRISM (GraphPad Software Inc., CA, USA).
(§2) The binding affinities were determined using isolated receptor binding assays where the different integrins (α 5 β 1,α v β 3, andα IIb β 3) were immobilised and [^125I]echistatin was replaced by increasing amounts of the different peptides tested. […] Introduction of the (RS)-2-fluoropropionic acid at the N-terminus of the peptide reduced the binding affinity by a factor of approx. 10.

integrin αIIbβ3 = molecular target: T2, integrin αIIbβ3 (Homo sapiens, UniProt P05106+P08514); test: as above
T2 construct: purchased Chemicon, Millipore
Method: as §1, §2

integrin αvβ3 = molecular target: T3, integrin αvβ3 (Homo sapiens, UniProt P05106+P06756); test: as above
T3 construct: purchased Chemicon, Millipore
Method: as §1, §2

α5β1 = tested on: α5β1; design: method as in PMID 7507494; conditions: read-out: IC50, inhibition of binding of fibronectin to α5β1; cited from earlier work
[1] = format: in vitro ADME, human
Method: The protein binding studies were carried out by incubating [^18F]FProp-C^*RRETAWAC^*-OH (1 MBq/mL) in fresh human serum at 37°C for different time points (30, 60, and 120 min). After incubation, the solution was passed through a spin column (MicroSpin G-50 columns; GE Healthcare, Buckinghamshire, United Kingdom). Protein binding was determined by measuring the activity fixed on the column and the activity in the eluate in the gamma counter. As control [^18F]FProp-C^*RRETAWAC^*-OH was incubated at the same concentration for 60 min in PBS instead of serum.

[2] = format: in vitro ADME, human; remark: listed apart in the source
Method: For stability studies, [^18F]FProp-C^*RRETAWAC^*-OH (approx. 2 MBq/mL) was incubated in human serum for 30, 60, and 120 min at 37°C. At each time point, aliquots of 100 μL were taken and proteins were precipitated using 150 μL acetonitrile. The suspension was treated for 5 min with ultrasound and subsequently centrifuged. The supernatant was diluted with water and analysed by HPLC.

[3] = tested on: DU145 human prostate carcinoma cells (αvβ3-negative and α5β1-positive); test: Cell uptake study with/without blocking by H-C*RRETAWAC*-OH; format: cell-based; conditions: 37°C, with or without excess H-C*RRETAWAC*-OH
Method: (§3) M21 (α v β 3-positive andα 5 β 1-negative), […] (α v β 3-negative andα 5 β 1-positive), and M21L (both receptors negative) cells were maintained in Gibco RPMI 1640 (Life Technologies, Carlsbad, CA) containing 1% glutamine, 10% (v/v) fetal calf serum (FCS), and 1% penicillin/streptomycin/glutamine and grown in tissue culture flasks (Cellstar; Greiner Bio-One, Kremsmuenster, Austria) at 37°C in a humidified atmosphere of 5% CO2 (v/v). For cell uptake studies, cells were trypsinised, washed twice with binding buffer (10 mM HEPES (pH 7.4), 150 mM NaCl, 2 mM MnCl2, 0.1% BSA), and aliquots of 0.9 mL containing 2 × 10^6 cells were transferred to Eppendorf tubes. After addition of 50 μL radiotracer (>100,000 cpm), cells were incubated at 37°C for 120 min in triplicate with either 50 μL PBS with 0.5% BSA (unblocked) or 50 μL of 50 μM H-C^*RRETAWAC^*-OH in PBS/0.5% BSA (blocked), respectively.
(§4) Incubation was stopped by centrifugation (2 min, 1000 rpm); medium was removed and cells were washed twice with 1 mL ice-cold binding buffer. […] Cells were lysed by treatment in 1 N NaOH and […] radioactivity was collected (internalised radioligand fraction). Protein content in the NaOH fraction was determined using spectrophotometric determination with Bradford reagent (Sigma Aldrich, Vienna, Austria). Internalised radioactivity was expressed as percentage of total activity per mg protein.

[4] = tested on: M21-L human melanoma cells (both receptors negative); test: as above; format: cell-based; conditions: 37°C, with or without excess H-C*RRETAWAC*-OH
Method: as §3, §4

[5] = Binding affinity (Ki) α5β1, average and standard deviation of the mean, or bound with n = 2, 125I-echistatin
[6] = Binding affinity (Ki) α5β1, single determinations, 125I-echistatin as radioligand
[7] = average and standard deviation of the mean, or bound with n = 2, 125I-echistatin, read-out: Binding affinity (Ki) α5β1
[8] = single determinations, 125I-echistatin as radioligand, read-out: Binding affinity (Ki) α5β1

T1 sequence (P08648 42-894 limits assumed): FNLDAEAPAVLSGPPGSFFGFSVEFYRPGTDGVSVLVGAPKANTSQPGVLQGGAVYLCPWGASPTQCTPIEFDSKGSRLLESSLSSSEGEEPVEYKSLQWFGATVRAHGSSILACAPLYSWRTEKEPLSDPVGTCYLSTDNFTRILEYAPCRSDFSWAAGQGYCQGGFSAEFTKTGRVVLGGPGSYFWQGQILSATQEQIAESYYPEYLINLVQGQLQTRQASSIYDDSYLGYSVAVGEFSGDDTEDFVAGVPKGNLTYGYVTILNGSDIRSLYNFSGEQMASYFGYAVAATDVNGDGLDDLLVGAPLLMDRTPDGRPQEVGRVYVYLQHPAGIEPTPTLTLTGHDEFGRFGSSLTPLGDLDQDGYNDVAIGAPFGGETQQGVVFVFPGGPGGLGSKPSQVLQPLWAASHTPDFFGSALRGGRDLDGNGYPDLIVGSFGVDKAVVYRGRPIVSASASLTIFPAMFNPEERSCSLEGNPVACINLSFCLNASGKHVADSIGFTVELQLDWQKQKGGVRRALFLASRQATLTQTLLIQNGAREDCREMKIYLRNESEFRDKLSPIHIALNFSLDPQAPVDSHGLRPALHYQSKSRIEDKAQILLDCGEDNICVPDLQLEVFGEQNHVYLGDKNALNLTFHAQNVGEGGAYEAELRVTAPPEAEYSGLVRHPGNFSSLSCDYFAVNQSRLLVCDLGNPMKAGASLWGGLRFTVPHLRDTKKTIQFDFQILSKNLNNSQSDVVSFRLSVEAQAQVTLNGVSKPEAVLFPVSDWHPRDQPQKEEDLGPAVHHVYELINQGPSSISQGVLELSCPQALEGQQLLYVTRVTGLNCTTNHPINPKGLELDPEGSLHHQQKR
T1 sequence (P08648 895-1049 partner limits assumed): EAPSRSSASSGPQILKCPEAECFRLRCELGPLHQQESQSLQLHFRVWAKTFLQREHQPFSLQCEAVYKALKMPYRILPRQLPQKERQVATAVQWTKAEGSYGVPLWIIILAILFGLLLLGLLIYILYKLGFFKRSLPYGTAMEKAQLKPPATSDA
T1 sequence (P05556 21-798): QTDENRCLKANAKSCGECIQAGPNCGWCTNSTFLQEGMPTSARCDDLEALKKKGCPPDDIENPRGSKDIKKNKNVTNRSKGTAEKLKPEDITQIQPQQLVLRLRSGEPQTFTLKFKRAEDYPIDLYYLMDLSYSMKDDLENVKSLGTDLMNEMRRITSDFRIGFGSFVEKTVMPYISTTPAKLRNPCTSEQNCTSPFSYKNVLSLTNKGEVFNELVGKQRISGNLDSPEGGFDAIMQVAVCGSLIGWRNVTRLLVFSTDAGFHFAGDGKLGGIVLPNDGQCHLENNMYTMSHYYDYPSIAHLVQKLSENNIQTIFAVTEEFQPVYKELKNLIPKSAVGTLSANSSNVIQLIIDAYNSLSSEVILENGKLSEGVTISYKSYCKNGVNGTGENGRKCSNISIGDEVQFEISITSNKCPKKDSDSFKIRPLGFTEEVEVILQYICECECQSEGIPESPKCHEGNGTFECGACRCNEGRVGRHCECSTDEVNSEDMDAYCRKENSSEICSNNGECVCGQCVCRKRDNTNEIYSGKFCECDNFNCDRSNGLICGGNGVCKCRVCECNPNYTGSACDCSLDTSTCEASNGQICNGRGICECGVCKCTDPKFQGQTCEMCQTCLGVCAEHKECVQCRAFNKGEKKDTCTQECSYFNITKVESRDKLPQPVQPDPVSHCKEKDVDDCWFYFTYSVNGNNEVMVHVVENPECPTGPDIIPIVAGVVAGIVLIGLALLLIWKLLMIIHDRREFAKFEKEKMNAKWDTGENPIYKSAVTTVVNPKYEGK
T3 sequence (P06756 31-889 limits assumed): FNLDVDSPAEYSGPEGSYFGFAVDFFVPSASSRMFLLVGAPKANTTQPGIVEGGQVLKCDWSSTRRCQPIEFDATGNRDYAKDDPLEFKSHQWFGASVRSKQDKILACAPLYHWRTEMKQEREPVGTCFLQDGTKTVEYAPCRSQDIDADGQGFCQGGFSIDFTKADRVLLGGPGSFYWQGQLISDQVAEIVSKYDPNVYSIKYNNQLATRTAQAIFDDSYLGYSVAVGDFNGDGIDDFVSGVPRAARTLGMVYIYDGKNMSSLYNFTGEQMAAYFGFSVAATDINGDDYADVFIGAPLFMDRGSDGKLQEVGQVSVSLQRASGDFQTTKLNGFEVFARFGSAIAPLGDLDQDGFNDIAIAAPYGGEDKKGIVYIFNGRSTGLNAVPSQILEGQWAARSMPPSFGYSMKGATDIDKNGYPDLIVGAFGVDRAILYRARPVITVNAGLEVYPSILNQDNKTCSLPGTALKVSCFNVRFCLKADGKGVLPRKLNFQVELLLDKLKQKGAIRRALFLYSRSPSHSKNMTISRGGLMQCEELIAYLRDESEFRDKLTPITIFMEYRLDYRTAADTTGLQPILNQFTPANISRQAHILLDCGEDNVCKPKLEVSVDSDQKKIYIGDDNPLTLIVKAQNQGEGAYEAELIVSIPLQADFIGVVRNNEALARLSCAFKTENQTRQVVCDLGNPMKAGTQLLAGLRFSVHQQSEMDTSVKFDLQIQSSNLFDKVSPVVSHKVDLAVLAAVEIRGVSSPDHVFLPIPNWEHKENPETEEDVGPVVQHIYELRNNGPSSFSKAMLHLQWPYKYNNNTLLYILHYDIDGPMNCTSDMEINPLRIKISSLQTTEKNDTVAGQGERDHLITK
T3 sequence (P06756 891-1048 partner limits assumed): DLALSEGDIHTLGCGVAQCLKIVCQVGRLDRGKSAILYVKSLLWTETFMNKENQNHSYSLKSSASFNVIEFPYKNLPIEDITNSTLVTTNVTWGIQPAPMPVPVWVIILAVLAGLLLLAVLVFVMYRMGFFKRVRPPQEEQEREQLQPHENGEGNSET
T3 sequence (P05106 27-788): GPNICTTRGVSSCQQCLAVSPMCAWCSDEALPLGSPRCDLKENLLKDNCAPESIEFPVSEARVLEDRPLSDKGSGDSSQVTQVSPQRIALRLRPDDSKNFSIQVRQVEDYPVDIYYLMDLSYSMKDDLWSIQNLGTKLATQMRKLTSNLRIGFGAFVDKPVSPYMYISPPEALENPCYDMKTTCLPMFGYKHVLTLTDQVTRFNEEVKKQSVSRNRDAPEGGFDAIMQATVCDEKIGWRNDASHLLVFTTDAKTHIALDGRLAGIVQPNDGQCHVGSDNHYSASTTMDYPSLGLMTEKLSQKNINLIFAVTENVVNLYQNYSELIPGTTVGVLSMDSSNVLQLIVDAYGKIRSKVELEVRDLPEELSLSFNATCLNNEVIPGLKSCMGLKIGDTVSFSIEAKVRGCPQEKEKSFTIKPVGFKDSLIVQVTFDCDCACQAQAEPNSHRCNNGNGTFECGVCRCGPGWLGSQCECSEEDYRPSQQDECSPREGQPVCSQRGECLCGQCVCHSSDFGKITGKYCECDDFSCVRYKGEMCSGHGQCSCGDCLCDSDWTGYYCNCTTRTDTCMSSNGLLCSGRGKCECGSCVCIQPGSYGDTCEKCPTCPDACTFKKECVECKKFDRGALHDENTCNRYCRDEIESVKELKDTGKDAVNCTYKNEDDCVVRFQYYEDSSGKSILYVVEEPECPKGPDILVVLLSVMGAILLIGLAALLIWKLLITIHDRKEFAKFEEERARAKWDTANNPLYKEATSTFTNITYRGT
T2 sequence (P08514 32-887 limits assumed): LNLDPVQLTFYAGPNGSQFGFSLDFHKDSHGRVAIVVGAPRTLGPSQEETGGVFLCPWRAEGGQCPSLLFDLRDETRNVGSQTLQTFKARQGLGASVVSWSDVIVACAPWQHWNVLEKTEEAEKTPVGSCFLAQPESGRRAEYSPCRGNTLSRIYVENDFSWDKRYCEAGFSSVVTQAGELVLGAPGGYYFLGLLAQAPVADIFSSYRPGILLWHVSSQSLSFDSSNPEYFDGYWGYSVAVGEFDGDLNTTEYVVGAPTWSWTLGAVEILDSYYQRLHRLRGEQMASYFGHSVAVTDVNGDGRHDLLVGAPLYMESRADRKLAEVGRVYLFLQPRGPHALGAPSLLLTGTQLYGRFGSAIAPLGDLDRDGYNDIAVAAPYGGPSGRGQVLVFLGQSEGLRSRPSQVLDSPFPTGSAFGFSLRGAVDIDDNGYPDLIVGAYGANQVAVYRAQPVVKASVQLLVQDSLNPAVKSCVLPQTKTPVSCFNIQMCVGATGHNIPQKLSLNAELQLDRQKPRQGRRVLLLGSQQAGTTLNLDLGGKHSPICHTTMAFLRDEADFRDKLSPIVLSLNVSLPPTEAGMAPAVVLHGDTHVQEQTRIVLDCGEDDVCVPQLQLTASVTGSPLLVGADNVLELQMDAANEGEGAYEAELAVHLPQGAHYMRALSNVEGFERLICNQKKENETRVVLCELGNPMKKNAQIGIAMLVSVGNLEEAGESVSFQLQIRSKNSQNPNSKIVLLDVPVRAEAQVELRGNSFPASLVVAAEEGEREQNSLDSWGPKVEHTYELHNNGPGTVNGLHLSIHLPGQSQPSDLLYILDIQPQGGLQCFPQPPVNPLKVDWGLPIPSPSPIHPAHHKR
T2 sequence (P08514 891-1039 partner limits assumed): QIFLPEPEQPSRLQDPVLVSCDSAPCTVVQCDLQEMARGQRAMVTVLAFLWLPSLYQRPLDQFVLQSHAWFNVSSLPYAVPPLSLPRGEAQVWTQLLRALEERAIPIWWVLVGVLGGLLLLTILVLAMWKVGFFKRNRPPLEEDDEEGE
T2 sequence (P05106 27-788): as the sequence (P05106 27-788) above

Molecule | Ki (integrin α5β1; [5]) | Ki (integrin α5β1; [6]) | Ki (integrin α5β1; [7]) | Ki (integrin α5β1; [8]) | Suppression of the binding of [125I]echistatin to immobilised integrin α5β1 (integrin α5β1) | further results
CC(F)C(=O)N[C@H]1CSSC[C@@H](C(=O)O)NC(=O)[C@H](C)NC(=O)[C@H](Cc2c[nH]c3ccccc23)NC(=O)[C@H](C)NC(=O)[C@H]([C@@H](C)O)NC(=O)[C@H](CCC(=O)O)NC(=O)[C@H](CCCNC(=N)N)NC(=O)[C@H](CCCNC(=N)N)NC1=O (some centres unmarked) [FProp-C∗RRETAWAC∗-OH (1)] ({Propanoyl(2-F)}-CRRETAWAC-OH; disulfide 1-9) | 44 ± 3 nM | 41 nM and 47 nM | – | – | – | Ki (integrin αIIbβ3): > 50000 nM; Ki (integrin αvβ3): > 50000 nM
CC(F)C(=O)N[C@H]1CSSC[C@@H](C(=O)O)NC(=O)[C@H](C)NC(=O)[C@H](Cc2c[nH]c3ccccc23)NC(=O)[C@H](C)NC(=O)[C@H]([C@@H](C)O)NC(=O)[C@H](CCC(=O)O)NC(=O)[C@H](CCCNC(=N)N)NC(=O)[C@H](CCCNC(=N)N)NC1=O (some centres unmarked) [FProp-C∗RRETAWAC∗-OH (2)] ({Propanoyl(2-F)}-CRRETAWAC-OH; disulfide 1-9) | 77 ± 50 nM | 127 nM and 26 nM | – | – | – | Ki (integrin αIIbβ3; read-out: Binding affinity (Ki) αIIbβ3, immobilized integrin, 125I-echistatin as radioligand): > 50000 nM; Ki (integrin αvβ3; read-out: Binding affinity (Ki) αvβ3, immobilized integrin, 125I-echistatin as radioligand): > 50000 nM
C[C@@H]1NC(=O)[C@H](Cc2c[nH]c3ccccc23)NC(=O)[C@H](C)NC(=O)[C@H]([C@@H](C)O)NC(=O)[C@H](CCC(=O)O)NC(=O)[C@H](C)NC(=O)[C@H](CCCNC(=N)N)NC(=O)[C@@H](N)CSSC[C@@H](C(=O)O)NC1=O [H-C∗RAETAWAC∗-OH] (H-CRAETAWAC-OH; disulfide 1-9) | – | – | 16 ± 1 nM | 17 nM and 15 nM | – | –
C[C@@H]1NC(=O)[C@H](Cc2c[nH]c3ccccc23)NC(=O)[C@H](C)NC(=O)[C@H]([C@@H](C)O)NC(=O)[C@H](CCC(=O)O)NC(=O)[C@H](CCCNC(=N)N)NC(=O)[C@H](CCCNC(=N)N)NC(=O)[C@@H](N)CSSC[C@@H](C(=O)O)NC1=O [H-C∗RRETAWAC∗-OH, H-Cys^*-Arg-Arg-Glu-Thr-Ala-Trp-Ala-Cys^*-OH] (H-CRRETAWAC-OH; disulfide 1-9) | – | – | 5.3 ± 4.1 nM | 10 nM and 3.9 nM and 2.1 nM | fully suppress | Ki (integrin αvβ3; immobilized integrin, 125I-echistatin as radioligand, read-out: Binding affinity (Ki) αvβ3): > 50000 nM; IC50 (α5β1): 8 nM
FProp-C^*RRETAWAC^*-OH: non-radioactive reference compound, N-terminal (RS)-2-fluoropropionyl conjugate of the lead peptide ({(RS)‑2‑fluoropropionyl}-CRRETAWAC-OH; disulfide N-9) | – | – | – | – | fully suppress | –
[^18F]FProp-Cys^*-Arg-Arg-Glu-Thr-Ala-Trp-Ala-Cys^*-OH ({(18F)fluoropropionyl}-CRRETAWAC-OH; disulfide N-9) [[^18F]FProp-C^*RRETAWAC^*-OH, 18F-labelled radiopeptide tracer for integrin α5β1] | – | – | – | – | – | Protein bound activity in human serum [1]: below 6 % of the total incubated activity; Serum stability (percentage printed in Figure 2) [2]: 97.1%; Specific binding and internalisation (cell uptake) [3]: specific binding and internalisation; Specific uptake (cell uptake) [4]: no specific uptake
